Test results taken from ChEMBL document CHEMBL1201862, “PubChem BioAssay data set” (2004).
“And” between values parts separate entries of the source, which are not always exact repeats. Equal values may be shown once.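 Cells were grown in 96-well plates and exposed to each compound for 48 hours at five concentrations; endpoints were interpolated linearly between bracketing concentrations, or set to the highest concentration if not reached. Abbreviation: GI50, concentration required for 50% inhibition of growth.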 The source made the active and inactive calls. Rule as the data show it: active = GI50 up to about 1.1 µM and inactive = higher.

Tests used:
Assay in all cases: NCI-60 cell line screen, 48 h
[1] = system: NCI-H23
[2] = system: OVCAR-8
[3] = system: LOX IMVI
[4] = system: SK-MEL-2
[5] = system: SK-MEL-5
[6] = system: A549
[7] = system: OVCAR-3
[8] = system: HOP-92
[9] = system: XF498
[10] = system: EKVX
[11] = system: SR
[12] = system: SK-OV-3
[13] = system: TK-10
[14] = system: M19-MEL
[15] = system: HOP-18
[16] = system: COLO 205
[17] = system: LXFL 529
[18] = system: A498
[19] = system: SW-620
[20] = system: CAKI-1
[21] = system: KM-20L2
[22] = system: UACC-257
[23] = system: NCI-H460
[24] = system: HOP-62
[25] = system: SNB-75
[26] = system: SN12C
[27] = system: K562
[28] = system: KM12
[29] = system: HCT-116
[30] = system: SF-268
[31] = system: DMS-273
[32] = system: UACC-62
[33] = system: Malme-3M
[34] = system: HL-60
[35] = system: DLD-1
[36] = system: SNB-19
[37] = system: SF-539
[38] = system: IGROV-1
[39] = system: 786-0
[40] = system: HCT-15
[41] = system: DMS-114
[42] = system: SNB-78
[43] = system: SK-MEL-28
[44] = system: OVCAR-5
[45] = system: U-251
[46] = system: HCC 2998
[47] = system: RPMI-8226
[48] = system: UO-31
[49] = system: SF-295
[50] = system: RXF 393
[51] = system: NCI-H522
[52] = system: MOLT-4
[53] = system: M14
[54] = system: OVCAR-4
[55] = system: ACHN
[56] = system: CCRF-CEM
[57] = system: HT-29
[58] = system: NCI-H226
[59] = system: DU-145
[60] = system: MDA-N
[61] = system: T47D
[62] = system: MDA-MB-231
[63] = system: PC-3
[64] = system: Hs-578T
[65] = system: MCF7
[66] = system: NCI/ADR-RES
[67] = system: RXF 631

Compound: N#CCCN(c1ccc(/C=N/c2ccc(C(=O)O)cc2)cc1)S(=O)(=O)c1ccccc1
- GI50 [1]: > 100 µM (inactive)
- GI50 [2]: > 100 µM (inactive)
- GI50 [3]: > 100 µM (inactive)
- GI50 [4]: > 100 µM (inactive)
- GI50 [5]: > 100 µM (inactive)
- GI50 [6]: > 100 µM (inactive)
- GI50 [7]: > 100 µM (inactive)
- GI50 [8]: > 100 µM (inactive)
- GI50 [9]: > 100 µM (inactive)
- GI50 [10]: > 100 µM (inactive)
- GI50 [11]: > 100 µM (inactive)
- GI50 [12]: > 100 µM (inactive)
- GI50 [13]: > 100 µM (inactive)
- GI50 [14]: > 100 µM (inactive)
- GI50 [15]: > 100 µM (inactive)
- GI50 [16]: > 100 µM (inactive)
- GI50 [17]: > 100 µM (inactive)
- GI50 [18]: > 100 µM (inactive)
- GI50 [19]: > 100 µM (inactive)
- GI50 [20]: > 100 µM (inactive)
- GI50 [21]: > 100 µM (inactive)
- GI50 [22]: > 100 µM (inactive)
- GI50 [23]: > 100 µM (inactive)
- GI50 [24]: > 100 µM (inactive)
- GI50 [25]: > 100 µM (inactive)
- GI50 [26]: > 100 µM (inactive)
- GI50 [27]: > 100 µM (inactive)
- GI50 [28]: > 100 µM (inactive)
- GI50 [29]: > 100 µM (inactive)
- GI50 [30]: > 100 µM (inactive)
- GI50 [31]: > 100 µM (inactive)
- GI50 [32]: > 100 µM (inactive)
- GI50 [33]: > 100 µM (inactive)
- GI50 [34]: 41.4 µM (inactive)
- GI50 [35]: > 100 µM (inactive)
- GI50 [36]: > 100 µM (inactive)
- GI50 [37]: > 100 µM (inactive)
- GI50 [38]: > 100 µM (inactive)
- GI50 [39]: > 100 µM (inactive)
- GI50 [40]: > 100 µM
- GI50 [41]: > 100 µM (inactive)
- GI50 [42]: > 100 µM (inactive)
- GI50 [43]: > 100 µM (inactive)
- GI50 [44]: > 100 µM (inactive)
- GI50 [45]: > 100 µM (inactive)
- GI50 [46]: > 100 µM (inactive)
- GI50 [47]: > 100 µM (inactive)
- GI50 [48]: > 100 µM (inactive)
- GI50 [49]: > 100 µM (inactive)
- GI50 [50]: > 100 µM (inactive)
- GI50 [51]: > 100 µM (inactive)
- GI50 [52]: > 100 µM (inactive)
- GI50 [53]: > 100 µM (inactive)
- GI50 [54]: > 100 µM (inactive)
- GI50 [55]: > 100 µM (inactive)
- GI50 [56]: > 100 µM (inactive)
- GI50 [57]: > 100 µM (inactive)
- GI50 [58]: > 100 µM (inactive)

Compound: COc1cc2nc(-c3cccc(N(C)C)c3)cc(O)c2cc1OC
- GI50 [1]: 3.54 µM (inactive)
- GI50 [2]: 6.03 µM (inactive)
- GI50 [3]: 6.79 µM (inactive)
- GI50 [5]: 4.36 µM (inactive)
- GI50 [6]: 4.06 µM (inactive)
- GI50 [7]: 1.52 µM (inactive)
- GI50 [8]: > 100 µM (inactive)
- GI50 [9]: 6.32 µM (inactive)
- GI50 [10]: 16.5 µM (inactive)
- GI50 [11]: 5.14 µM (inactive)
- GI50 [12]: 3.7 µM (inactive)
- GI50 [13]: > 100 µM (inactive)
- GI50 [14]: 5.55 µM (inactive)
- GI50 [15]: 3.27 µM (inactive)
- GI50 [16]: 3.85 µM (inactive)
- GI50 [17]: 5.22 µM (inactive)
- GI50 [18]: 6.03 µM (inactive)
- GI50 [19]: 4.09 µM (inactive)
- GI50 [21]: 2.11 µM (inactive)
- GI50 [22]: 5.28 µM (inactive)
- GI50 [23]: 3.94 µM (inactive)
- GI50 [24]: 3.02 µM (inactive)
- GI50 [26]: 7.67 µM (inactive)
- GI50 [27]: 3.62 µM (inactive)
- GI50 [28]: 3.31 µM (inactive)
- GI50 [29]: 4.8 µM (inactive)
- GI50 [30]: 16.6 µM (inactive)
- GI50 [31]: 3.85 µM (inactive)
- GI50 [32]: 3.44 µM (inactive)
- GI50 [33]: 2.23 µM (inactive)
- GI50 [34]: 2.7 µM (inactive)
- GI50 [35]: 4.5 µM (inactive)
- GI50 [36]: 4.98 µM (inactive)
- GI50 [37]: 2.66 µM (inactive)
- GI50 [38]: 7.11 µM (inactive)
- GI50 [39]: 3.57 µM (inactive)
- GI50 [40]: 2.99 µM
- GI50 [41]: 4.73 µM (inactive)
- GI50 [42]: 5.83 µM (inactive)
- GI50 [44]: 5.18 µM (inactive)
- GI50 [46]: 2.39 µM (inactive)
- GI50 [47]: 3.65 µM (inactive)
- GI50 [48]: 5.65 µM (inactive)
- GI50 [49]: 2.58 µM (inactive)
- GI50 [50]: 2.21 µM (inactive)
- GI50 [51]: 2.81 µM (inactive)
- GI50 [52]: 5.19 µM (inactive)
- GI50 [53]: 2.07 µM (inactive)
- GI50 [54]: > 100 µM (inactive)
- GI50 [55]: 14.5 µM (inactive)
- GI50 [56]: 3.87 µM (inactive)
- GI50 [57]: 3.2 µM (inactive)
- GI50 [58]: 3.58 µM (inactive)

Compound: CC1(C)CC[C@H](C2=CC(=O)c3c(O)ccc(O)c3C2=O)O1
- GI50 [59]: 2.4 µM (inactive) and 2.09 µM (inactive)
- GI50 [60]: 577 nM (active) and 904 nM (active)
- GI50 [12]: 8.05 µM (inactive) and 4.24 µM (inactive)
- GI50 [61]: 460 nM (active) and 470 nM (active)
- GI50 [62]: 2.44 µM (inactive) and 1.48 µM (inactive)
- GI50 [63]: 2.86 µM (inactive) and 1.71 µM (inactive)
- GI50 [24]: 4.61 µM (inactive) and 2.72 µM (inactive)
- GI50 [64]: 2.64 µM (inactive) and 2.74 µM (inactive)
- GI50 [65]: 173 nM (active) and 216 nM (active)
- GI50 [41]: 359 nM (active) and 200 nM (active)
- GI50 [66]: 2.79 µM (inactive)
- GI50 [67]: 1.15 µM (inactive)
